The record followed here is ChEMBL document CHEMBL2021926, “Serendipity in discovery of proteasome inhibitors” (Bioorg Med Chem Lett, 2012).

A short description of experiment [1]: Inhibition of chymotrypsin-like activity of human liver 26S proteasome using Suc-LLVY-AMC substrate.
A short description of experiment [2]: Inhibition of chymotrypsin-like activity of 26S proteasome in human Molt4 cells using MeOSuc-Phe-Leu-Phe-AFC substrate. It counts as cell-based. To be noted: MOLT-4.
A short description of experiment [3]: Inhibition of chymotrypsin-like activity of 26S proteasome.

The term IC50 denotes the concentration needed to halve the response being measured. Low values mean greater potency in that assay, high ones weaker potency in that assay. Regarding `CCCCCC(=O)N[C@H](C(=O)N[C@@H](CC(C)C)B1O[C@@H]2C[C@@H]3C[C@@H](C3(C)C)[C@]2(C)O1)[C@@H](C)O`, the IC50 in experiment [1] is greater than 10 nM.

As for `CC(C)C[C@H](NC(=O)[C@@H](NC(=O)OC(C)(C)C)[C@@H](C)O)B1O[C@@H]2C[C@@H]3C[C@@H](C3(C)C)[C@]2(C)O1`, the half-inhibitory concentration (IC50) in experiment [1] is greater than 10 nM. What is called EC50 is the concentration giving half of the maximal effect. With `CC(C)C[C@H](NC(=O)[C@H](Cc1ccccc1)NC(=O)c1cnccn1)B(O)O` [BORTEZOMIB], 4 nM corresponded to half-maximal inhibition in experiment [1] (IC50). Also, a half-maximal effect in experiment [2] (EC50) was put at 21 nM. With `CC(C)C[C@@H](C=O)NC(=O)[C@H](CCCN/C(N)=N/[N+](=O)[O-])NC(=O)C(CCCCCCCCC#N)C1CCCC1` (some centres undefined), in experiment [3], the IC50 worked out at 6 nM. Compound `COCCOCCOCC(=O)N[C@H](C(=O)N[C@@H](CC(C)C)B1O[C@@H]2C[C@@H]3C[C@@H](C3(C)C)[C@]2(C)O1)[C@@H](C)O` showed an IC50 in experiment [1] greater than 10 nM. `CC(C)C[C@H](NC(=O)[C@H](CCCN/C(N)=N/[N+](=O)[O-])NC(=O)C(CCCCCCCCC#N)C1CCCC1)C(=O)C(=O)NCCNS(=O)(=O)c1ccccc1` (some centres undefined) showed an IC50 in experiment [3] of 1 nM. The compound `CC(C)C[C@H](NC(=O)[C@@H](NC(=O)C(CCCCCCCCN1C(=O)c2ccccc2C1=O)C1CCCC1)[C@@H](C)O)B1O[C@@H]2C[C@@H]3C[C@@H](C3(C)C)[C@]2(C)O1` (mixture of isomers) yielded an IC50 in experiment [1] of 7 nM. The compound also came in with a concentration for a half-maximal effect (EC50) in experiment [2] of 100 nM. On to `CC(C)C[C@H](NC(=O)[C@H](CCCN/C(N)=N/[N+](=O)[O-])NC(=O)C(CCCCCCCCC#N)C1CCCC1)B1OC(C)(C)C(C)(C)O1` (some centres undefined), for which the IC50 in experiment [3] turned out to be 6 nM.

On to `CC(C)C[C@H](NC(=O)[C@@H](NC(=O)c1ccccc1)[C@@H](C)O)B1O[C@@H]2C[C@@H]3C[C@@H](C3(C)C)[C@]2(C)O1`, for which the IC50 in experiment [1] was greater than 10 nM. Regarding `CC(C)C[C@@H](C=O)NC(=O)[C@H](CCCN/C(N)=N/[N+](=O)[O-])NC(=O)C(CCCCCCCCN1C(=O)c2ccccc2C1=O)C1CCCC1` (some centres undefined), in experiment [3], 2 nM corresponded to half-maximal inhibition (IC50). `CC(C)C[C@H](NC(=O)[C@@H](NC(=O)c1cnccn1)[C@@H](C)O)B1O[C@@H]2C[C@@H]3C[C@@H](C3(C)C)[C@]2(C)O1` returned an IC50 in experiment [1] greater than 10 nM. The compound `CC(C)C[C@H](NC(=O)[C@H](CCCN/C(N)=N/[N+](=O)[O-])NC(=O)C(CCCCCCCCN1C(=O)c2ccccc2C1=O)C1CCCC1)B1OC2C[C@@H]3C[C@@H](C3(C)C)[C@]2(C)O1` (some centres undefined) gave a half-maximal inhibitory concentration (IC50) in experiment [1] of 3.5 nM. Besides, in experiment [2], the EC50 came to 70 nM. The compound `CC(C)C[C@H](NC(=O)C(NC(=O)[C@H](CC(C)C)NC(=O)OCc1ccccc1)C(C)O)B1O[C@@H]2C[C@@H]3C[C@@H](C3(C)C)[C@]2(C)O1` (single isomer, unassigned) registered an IC50 in experiment [1] of 1 nM. Further, the EC50 in experiment [2] was found to be 120 nM. As to `CC(C)C[C@H](NC(=O)[C@@H](NC(=O)OCc1ccccc1)[C@@H](C)O)B1O[C@@H]2C[C@@H]3C[C@@H](C3(C)C)[C@]2(C)O1`, in experiment [1], the IC50 is greater than 10 nM. Same read-out and setting: then `CC(C)C[C@H](NC(=O)[C@@H](N)[C@@H](C)O)B1O[C@@H]2C[C@@H]3C[C@@H](C3(C)C)[C@]2(C)O1`, with greater than 10 nM.
